Assays:
[1] = test system: mouse intestinal organoids; assay: organoid budding / stem cell potential; type: cell-based; details: 48 h; dFz7-21 1-200 μM, Fz7-21S 200 μM; FIG. 18
Description: Mouse organoids were established from isolated crypts collected from the entire length of the small intestine and maintained as previously described (Sato et al. (2009) Nature 459, 262-265 (2009). All mouse derived tissue was performed according to the animal use guidelines of Genentech, a Member of the Roche Group, and the Institutional Animal Care and Use Committee, conforming to California State legal and ethical practices. Mouse sex was not selected for. Organoids were passaged at least twice per week and grown using IntestiCult Organoid growth media (cat. no. 06005; StemCell Technologies). […]
The organoid culture system faithfully recapitulates the intestinal epithelium including the presence of crypt-villus morphology. […] Therefore, stem cell function of the organoid population (a Wnt-dependent process) was quantitatively assessed by scoring the number of formed buds per organoid (Grabinger et al. (2014) “Ex vivo culture of intestinal crypt organoids as a model system for assessing cell death induction in intestinal epithelial cells and enteropathy.” Cell Death & Disease 5, e1228). […] Morphologies of representative mouse intestinal organoids after 48 h treatment are shown in FIGS. 17A-G. Next, organoid stem cell (SC) potential after peptide treatment was quantified. […]

[2] = test system: intestinal epithelia of C57BL/6 mice; assay: RT-PCR of intestinal epithelia from treated mice; type: in vivo, mouse; details: intraperitoneal, 6 h; FIGS. 20A-20C
Description: RNA from organoid samples was isolated using the RNeasy Micro kit (cat. no. 74004; Qiagen) according to the manufacturer's instructions. Mouse small intestine RNA was collected using the RNeasy Mini Kit (cat. no. 74104; Qiagen). qRT-PCR was performed in 10 μL reactions with 50 ng total RNA using One-step Real-time RT-PCR mastermix (cat. no. 4392938; Life Technologies) according to the manufacturer's instructions. Taqman probes from Life Technologies were used: Actb (Mm01205647_g1); Lgr5 (Mm01251801_m1); Axin2 (Mm00443610_m1); Ascl2 (Mm01268891_g1); Olfm4 (Mm01320260_m1); Muc2 (Mm01276696_m1); ACTB(Hs99999903_m1); ACTB(Mm00607939_s1); GAPDH (Mm99999915_g1); and GAPDH(Hs03929097_g1). RT-PCR reactions were run using a 7900HT Fast Real-Time PCR system (ABI) at the following thermal cycling conditions: Holding step of 30 min at 48° C., followed by a holding step of 10 min at 95° C., and 40 cycles of 10 sec at 95° C. and 1 min at 60° C. Values were normalized to actin transcript levels and then normalized to control as described in the figure legend.
C57BL/6 female mice (8 weeks old) were subjected to intraperitoneal injection once per hour (˜150-200 μL injection volume for five injections) until the indicated peptide dose was reached. […]
The pharmacological effect of dFz7-21 was further investigated in vivo. […] Following treatment, RT-PCR was performed to quantify transcript levels.

[3] = test system: Wnt3a-mediated β-catenin signaling in HEK293-TB cells; type: cell-based
[4] = test system: receptor-independent β-catenin signaling in 6-BIO-treated HEK293-TB cells; assay: epistasis study, HEK293-TB cells stimulated with 6-BIO; type: cell-based; details: 10 μM 6-BIO, 6 hr; FIG. 2E

Row | Sequence | budding events / organoid stem cell potential [1] | Lgr5, Ascl2 and Axin2 transcript levels [2] | improvement compared to monomeric Fz7-21 in inhibiting Wnt3a signaling ([3]; FIG. 15) [fold] | inhibition of Wnt signaling in 6-BIO-treated cells [4] | Reduction in fold potency vs. dimer [3] | inhibition of Wnt3a signaling [3]
1 | LPSDDLEFWCHVMY [dFz7-21] | dramatically reduced | significantly down regulated | ~40 |  |  | 
2 | LPSDDLEFWSHVMY [Fz7-21S, negative control] | did not show any major effects | did not affect |  | Neither Fz7-21 nor Fz7-21S inhibited | >9,000 fold | not found to inhibit
